# Measurements taken from PubChem BioAssay (NCI).
#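 Where inhibition never reached the appropriate level, the endpoint shown equals the highest concentration tested. Otherwise, values were interpolated linearly from a five-concentration, 48-hour dose response in 96-well plates. GI50 is the concentration that inhibits growth by half. The concentration for full growth arrest is given as TGI.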
# Experiments:
# Experiment in all cases: DTP human tumour cell line panel, 48 h
# [1] = test system: 786-0 renal
# [2] = test system: A498 renal
# [3] = test system: A549 NSCLC
# [4] = test system: ACHN renal
# [5] = test system: BT-549 breast
# [6] = test system: CAKI-1 renal
# [7] = test system: COLO 205 colon
# [8] = test system: DU-145 prostate
# [9] = test system: EKVX NSCLC
# [10] = test system: HCC-2998 colon
# [11] = test system: HCT-116 colon
# [12] = test system: HCT-15 colon
# [13] = test system: HL-60(TB) leukemia
# [14] = test system: HOP-62 NSCLC
# [15] = test system: HOP-92 NSCLC
# [16] = test system: HS 578T breast
# [17] = test system: HT29 colon
# [18] = test system: IGROV1 ovarian
# [19] = test system: K-562 leukemia
# [20] = test system: KM12 colon
# [21] = test system: LOX IMVI melanoma
# [22] = test system: M14 melanoma
# [23] = test system: MALME-3M melanoma
# [24] = test system: MCF7 breast
# [25] = test system: MDA-MB-231 breast
# [26] = test system: MDA-MB-435
# [27] = test system: MOLT-4 leukemia
# [28] = test system: NCI-H23 lung
# [29] = test system: NCI-H460 lung
# [30] = test system: NCI-H522 lung
# [31] = test system: NCI/ADR-RES ovarian
# [32] = test system: OVCAR-3 ovarian
# [33] = test system: OVCAR-4 ovarian
# [34] = test system: OVCAR-5 ovarian
# [35] = test system: OVCAR-8 ovarian
# [36] = test system: PC-3 prostate
# [37] = test system: RPMI-8226 leukemia
# [38] = test system: RXF 393 renal
# [39] = test system: SF-268 CNS
# [40] = test system: SF-295 CNS
# [41] = test system: SF-539 CNS
# [42] = test system: SK-MEL-2 melanoma
# [43] = test system: SK-MEL-28 melanoma
# [44] = test system: SK-OV-3 ovarian
# [45] = test system: SN12C renal
# [46] = test system: SNB-19 CNS
# [47] = test system: SNB-75 CNS
# [48] = test system: SR leukemia
# [49] = test system: SW-620 colon
# [50] = test system: T-47D breast
# [51] = test system: TK-10 renal
# [52] = test system: U251 CNS
# [53] = test system: UACC-257 melanoma
# [54] = test system: UACC-62 melanoma
# [55] = test system: UO-31 renal
# [56] = test system: CCRF-CEM leukemia
# [57] = test system: NCI-H226 lung
# [58] = test system: SK-MEL-5 melanoma
smiles,measurement,setting,value
Cc1ccc(-c2nc(N3CCCNCC3)c3oc(-c4ccc(C)cc4)nc3n2)cc1,GI50,[1],1.76 µM
same,TGI,[1],3.25 µM
same,GI50,[2],15.8 µM
same,TGI,[2],31.7 µM
same,GI50,[3],1.72 µM
same,TGI,[3],3.13 µM
same,GI50,[4],1.75 µM
same,TGI,[4],3.13 µM
same,GI50,[5],16.3 µM
same,TGI,[5],35 µM
same,GI50,[6],1.56 µM
same,TGI,[6],3.02 µM
same,GI50,[7],1.89 µM
same,TGI,[7],3.55 µM
same,GI50,[8],1.89 µM
same,TGI,[8],3.3 µM
same,GI50,[9],4.09 µM
same,TGI,[9],> 100 µM
same,GI50,[10],32.3 µM
same,TGI,[10],> 100 µM
same,GI50,[11],1.57 µM
same,TGI,[11],2.92 µM
same,GI50,[12],1.49 µM
same,TGI,[12],2.96 µM
same,GI50,[13],0.179 µM
same,TGI,[13],0.371 µM
same,GI50,[14],8.78 µM
same,TGI,[14],24.3 µM
same,GI50,[15],1.01 µM
same,TGI,[15],2.3 µM
same,GI50,[16],12.6 µM
same,TGI,[16],31.9 µM
same,GI50,[17],1.49 µM
same,TGI,[17],2.85 µM
same,GI50,[18],1.62 µM
same,TGI,[18],3.19 µM
same,GI50,[19],0.946 µM
same,TGI,[19],2.68 µM
same,GI50,[20],1.72 µM
same,TGI,[20],3.2 µM
same,GI50,[21],1.86 µM
same,TGI,[21],3.46 µM
same,GI50,[22],1.85 µM
same,TGI,[22],3.55 µM
same,GI50,[23],1.98 µM
same,TGI,[23],3.61 µM
same,GI50,[24],1.85 µM
same,TGI,[24],3.88 µM
same,GI50,[25],1.69 µM
same,TGI,[25],3.11 µM
same,GI50,[26],1.78 µM
same,TGI,[26],3.17 µM
same,GI50,[27],1.77 µM
same,TGI,[27],3.59 µM
same,GI50,[28],19.9 µM
same,TGI,[28],88.2 µM
same,GI50,[29],1.89 µM
same,TGI,[29],3.43 µM
same,GI50,[30],1.75 µM
same,TGI,[30],3.51 µM
same,GI50,[31],1.96 µM
same,TGI,[31],3.74 µM
same,GI50,[32],1.73 µM
same,TGI,[32],3.1 µM
same,GI50,[33],2.11 µM
same,TGI,[33],4.67 µM
same,GI50,[34],1.75 µM
same,TGI,[34],3.17 µM
same,GI50,[35],2.11 µM
same,TGI,[35],4.22 µM
same,GI50,[36],1.51 µM
same,TGI,[36],2.91 µM
same,GI50,[37],1.89 µM
same,TGI,[37],4.22 µM
same,GI50,[38],1.65 µM
same,TGI,[38],3.14 µM
same,GI50,[39],1.77 µM
same,TGI,[39],3.48 µM
same,GI50,[40],1.86 µM
same,TGI,[40],3.54 µM
same,GI50,[41],1.76 µM
same,TGI,[41],3.29 µM
same,GI50,[42],21.3 µM
same,TGI,[42],45.4 µM
same,GI50,[43],1.93 µM
same,TGI,[43],3.51 µM
same,GI50,[44],17.8 µM
same,TGI,[44],31.6 µM
same,GI50,[45],1.61 µM
same,TGI,[45],3.06 µM
same,GI50,[46],1.77 µM
same,TGI,[46],3.25 µM
same,GI50,[47],1.66 µM
same,TGI,[47],3.02 µM
same,GI50,[48],0.213 µM
same,TGI,[48],0.575 µM
same,GI50,[49],1.66 µM
same,TGI,[49],3.2 µM
same,GI50,[50],1.94 µM
same,TGI,[50],4.17 µM
same,GI50,[51],2.08 µM
same,TGI,[51],3.96 µM
same,GI50,[52],1.76 µM
same,TGI,[52],3.18 µM
same,GI50,[53],19.8 µM
same,TGI,[53],41.1 µM
same,GI50,[54],1.67 µM
same,TGI,[54],3.08 µM
same,GI50,[55],1.38 µM
same,TGI,[55],2.68 µM
COc1ccc(-c2nn(-c3cccc(NC(=O)c4ccc(N5CCOCC5)c(C(F)(F)F)c4)c3)cc2-c2ccncc2)cc1Cl,GI50,[1],1.51 µM
same,TGI,[1],27.6 µM
same,GI50,[2],2.44 µM
same,TGI,[2],26.4 µM
same,GI50,[3],6.52 µM
same,TGI,[3],> 50 µM
same,GI50,[4],10.2 µM
same,TGI,[4],> 50 µM
same,GI50,[5],4.14 µM
same,TGI,[5],> 50 µM
same,GI50,[6],3.64 µM
same,TGI,[6],> 50 µM
same,GI50,[56],2.92 µM
same,TGI,[56],> 50 µM
same,GI50,[7],4.25 µM
same,TGI,[7],> 50 µM
same,GI50,[8],> 50 µM
same,TGI,[8],> 50 µM
same,GI50,[10],14.1 µM
same,TGI,[10],> 50 µM
same,GI50,[11],3.74 µM
same,TGI,[11],> 50 µM
same,GI50,[12],2.99 µM
same,TGI,[12],> 50 µM
same,GI50,[13],4.42 µM
same,TGI,[13],> 50 µM
same,GI50,[14],11.4 µM
same,TGI,[14],> 50 µM
same,GI50,[16],2.65 µM
same,TGI,[16],> 50 µM
same,GI50,[17],1.72 µM
same,TGI,[17],> 50 µM
same,GI50,[18],> 50 µM
same,TGI,[18],> 50 µM
same,GI50,[19],1.89 µM
same,TGI,[19],> 50 µM
same,GI50,[20],2.11 µM
same,TGI,[20],> 50 µM
same,GI50,[21],9.98 µM
same,TGI,[21],> 50 µM
same,GI50,[22],4.54 µM
same,TGI,[22],38.1 µM
same,GI50,[23],5.05 µM
same,TGI,[23],> 50 µM
same,GI50,[24],3.11 µM
same,TGI,[24],> 50 µM
same,GI50,[25],2.29 µM
same,TGI,[25],> 50 µM
same,GI50,[26],2.6 µM
same,TGI,[26],35 µM
same,GI50,[27],4.5 µM
same,TGI,[27],> 50 µM
same,GI50,[57],21.3 µM
same,TGI,[57],> 50 µM
same,GI50,[28],29.9 µM
same,TGI,[28],> 50 µM
same,GI50,[29],5.23 µM
same,TGI,[29],> 50 µM
same,GI50,[30],2.77 µM
same,TGI,[30],34.4 µM
same,GI50,[31],3.41 µM
same,TGI,[31],24.5 µM
same,GI50,[33],36.2 µM
same,TGI,[33],> 50 µM
same,GI50,[34],> 50 µM
same,TGI,[34],> 50 µM
same,GI50,[35],4.47 µM
same,TGI,[35],> 50 µM
same,GI50,[36],3.49 µM
same,TGI,[36],> 50 µM
same,GI50,[37],2.06 µM
same,TGI,[37],> 50 µM
same,GI50,[38],1.35 µM
same,TGI,[38],23.3 µM
same,GI50,[39],13.3 µM
same,TGI,[39],> 50 µM
same,GI50,[40],2.31 µM
same,TGI,[40],> 50 µM
same,GI50,[41],2.66 µM
same,TGI,[41],36.3 µM
same,GI50,[42],16.3 µM
same,TGI,[42],> 50 µM
same,GI50,[43],9.97 µM
same,TGI,[43],> 50 µM
same,GI50,[58],6.4 µM
same,TGI,[58],> 50 µM
same,GI50,[44],32.8 µM
same,TGI,[44],> 50 µM
same,GI50,[45],> 50 µM
same,TGI,[45],> 50 µM
same,GI50,[46],46.8 µM
same,TGI,[46],> 50 µM
same,GI50,[47],0.797 µM
same,TGI,[47],4.95 µM
same,GI50,[48],1.62 µM
same,TGI,[48],> 50 µM
same,GI50,[49],21.3 µM
same,TGI,[49],> 50 µM
same,GI50,[50],4.5 µM
same,TGI,[50],> 50 µM
same,GI50,[51],> 50 µM
same,TGI,[51],> 50 µM
same,GI50,[52],1.14 µM
same,TGI,[52],> 50 µM
same,GI50,[53],> 50 µM
same,TGI,[53],> 50 µM
same,GI50,[54],8.69 µM
same,TGI,[54],> 50 µM
same,GI50,[55],20.8 µM
same,TGI,[55],> 50 µM
